Assay results as given in patent US4153727A, “Pharmaceutical compositions of a prostaglandin compound for rectal use in treating asthma” (priority 1977, dated 1979).

Experiments:
[1] = diarrhea-producing effect, oral; conditions: guinea pig, in vivo, guinea-pigs; for TD50: observed at 2-5 hrs and next morning, read-out: (A) Diarrhea-producing effect (b) ED50; for selectivity ratio: read-out: b/a (diarrhea-producing ED50 / oral antiasthmatic ED50)
Protocol: Ii. diarrhea-producing Effect
Test compounds were administered orally to guinea-pigs. The appearance of diarrhea (loose or watery feces) at every 2 hrs, 3 hrs, 4 hrs and 5 hrs period and next morning were noted.

histamine [2] = assay: antiasthmatic effect, oral: protection against histamine-induced sneezing; format: in vivo; conditions: Cavia porcellus, 0.5 h, 30 min before histamine spray, guinea-pigs
Protocol: (§1) Guinea-pigs were placed in a chamber and sprayed for 10 sec. with an aerosol of histamine solution (0.1%) and onset of sneezing was recorded. Animals that sneezed within 70-100 sec. were selected as controls. These animals were sprayed for 15 sec. with an aerosol of the test compounds. After 45 sec., the animals were sprayed with histamine and observed for 3 min.
Guinea-pigs were sprayed for 10 sec with histamine 30 min after oral administration of the test compounds and observed for 3 min. The percent of amimals protected was determined.

histamine [3] = assay: antiasthmatic effect, aerosol: protection against histamine-induced sneezing; format: in vivo; conditions: aerosol 15 sec; histamine aerosol 0.1%; guinea-pigs
Protocol: as §1

histamine [4] = conditions: earlier patents; cited from earlier work
[5] = tested on: bronchoconstriction induced by intravenous injection of histamine; assay: effect on air-way resistance (Konzett and Rossler), intraduodenal administration; format: in vivo, guinea-pig; conditions: Cavia porcellus, 0.5 h, 30 min before i.v. histamine 3 μg/kg, anesthetized guinea-pigs, read-out: (B) Effect on air-way resistance ED50
Protocol: Iii. effect on Air-way Resistance
The air-way resistance of the guinea-pig lung was determined by the method of Konzett and Rossler (Arch. exp. Path. Pharmak., 195, 71-74(1940)). The bronchodilator activity of prostaglandins were expressed in terms of protective effect against bronchoconstriction induced by intravenous injection of histamine (3 μg/kg). Histamine was injected 30 min after intraduodenal administration of test compound to urethane anesthetized and artificially ventilated guinea-pigs.

histamine [6] = conditions: earlier patents; cited from earlier work; remark: listed apart in the source
hystamine = assay: Experiment 1: bronchodilator activity by hystamine spray method, rectal vs oral; format: in vivo, male guinea pigs; conditions: 30 min; for Bronchodilator activity, effective / animals tested: oral (control)
Protocol: A suppository prepared using the compound of formula I and the oily base or water-soluble base was applied by rectal administration (this invention) to male guinea pigs fasted for 24 hours, each weighing about 550 g. On the other hand, a solution of the compound of formula I in physiological saline solution was applied by oral administration to guinea pigs under the same condition as above for control. After 30 minutes from the administration, the bronchodilator activity of the medicament was determined by a hystamine spray method.

[7] = stability as inhalant (aerosol); format: physicochemical; conditions: used as an inhalant (aerosol)
[8] = tested on: respiratory tract contraction induced by hystamine; assay: 50% inhibition of respiratory tract contraction induced by hystamine, oral vs intravenous; format: in vivo; conditions: 50% inhibition of hystamine-induced respiratory tract contraction
[9] = rectal administration: absorption, antitussive effect, diarrhea; format: in vivo

Row | SMILES | TD50 [1] [mg/kg] | selectivity ratio [1] | ED50 (histamine [2]) [mg/kg] | Antiasthmatic effect, Aerosol ED50 (histamine [3]) [µg/mL] | antiasthmatic effect by oral administration (in words) (histamine [4]) | other results
1 | CCCC[C@@H](C)[C@H](O)/C=C/[C@H]1[C@H](O)CC(=O)[C@@H]1C/C=C\CCCC(=O)O [16(R)-methyl-PGE2, 11α,15(S)-dihydroxy-16(R)-methyl-9-oxo-5(cis)-13(trans)prostadienoic acid] | 0.025 | 1.43 | 0.0175 | 0.011 |  | 
2 | CCCC[C@H](C)[C@H](O)/C=C/[C@H]1[C@H](O)CC(=O)[C@@H]1C/C=C\CCCC(=O)O [16(S)-methyl-PGE2, 11α, 15(S)-dihydroxy-16(S)-methyl-9-oxo-5(cis)-13(trans)prostadienoic acid] | 0.1 | 4 | 0.025 | 0.009 |  | 
3 | COCCCCC[C@H](O)/C=C/[C@H]1[C@H](O)CC(=O)[C@@H]1C/C=C\CCCC(=O)O [20-methoxy-PGE2, 11α,15(S)-dihydroxy-20-methoxy-9-oxo-5(cis)-13(trans)Prostadienoic acid] |  |  | > 0.8 | 0.15 | does not show antiasthmatic effect | 
4 | CCCCC[C@H](O)/C=C/[C@H]1[C@H](O)CC(=O)[C@@H]1C/C=C\CCCC(=O)O [Prostaglandin E2] |  |  | > 0.8 | 0.15 |  | ED50 [5]: > 0.8 mg/kg
5 | COCCCC[C@H](C)[C@H](O)/C=C/[C@H]1[C@H](O)CC(=O)[C@@H]1C/C=C\CCCC(=O)O [compound of formula I, 11α,15(S)-dihydroxy-20-methoxy-16(S)-methyl-9-oxo-5(cis),13(trans)-prostadienoic acid] | 0.14 | 20 | 0.71 |  | excellent antiasthmatic effect | antiasthmatic effect by aerosol administration (in words) (histamine [6]): excellent antiasthmatic effect; Bronchodilator activity, effective / animals tested (hystamine; 3.1 μg/kg): 1/6; Bronchodilator activity, effective / animals tested (hystamine; 6.3 μg/kg): 3/6; Bronchodilator activity, effective / animals tested (hystamine; 12.5 μg/kg): 4/6; Bronchodilator activity, effective / animals tested (hystamine; 25 μg/kg): 4/6; Bronchodilator activity, effective / animals tested (hystamine; 50 μg/kg): 5/6; Bronchodilator activity ED50 (hystamine; oral administration (control)): 0.007 mg/kg; stability of the medicament [7]: difficult to maintain the stability; effective amount (ED50) oral relative to intravenous injection [8]: about 2400 times; absorption through the intestine [9]: unexpectedly absorbed through the intestine; antitussive effect [9]: exhibits an antitussive effect; diarrhea [9]: does not cause diarrhea
